# Assay results from US7112579B2, “26,27-Homologated-20-EPI-2-alkyl-19-nor-vitamin D compounds” (Wisconsin Alumni Research Foundation, priority 1997, dated 2006).
# “Also recorded” adds a separate entry of the source. Read-outs that look alike come from different tables or passages of the source.
# Columns and labels:
# [1] = target: T1, porcine intestinal vitamin D receptor (Sus scrofa, UniProt A3RGC1); test: Competitive binding to the porcine intestinal vitamin D receptor ([3H]-1,25-(OH)2-D3 displacement); set-up: species or system pig; conditions: for ability to bind the porcine intestinal vitamin D receptor, in words: FIGS. 1, 3 and 5, comparison in words; for VDR Binding ratio: analog average ED50 / ED50 for 1α,25-(OH)2D3; for EC50: concentration for 50% displacement of radiolabeled 1α,25-(OH)2D3, read-out: VDR Binding ED50
# T1 construct: from tissue; host or cells: porcine intestine
# T1 sequence (A3RGC1 1-427): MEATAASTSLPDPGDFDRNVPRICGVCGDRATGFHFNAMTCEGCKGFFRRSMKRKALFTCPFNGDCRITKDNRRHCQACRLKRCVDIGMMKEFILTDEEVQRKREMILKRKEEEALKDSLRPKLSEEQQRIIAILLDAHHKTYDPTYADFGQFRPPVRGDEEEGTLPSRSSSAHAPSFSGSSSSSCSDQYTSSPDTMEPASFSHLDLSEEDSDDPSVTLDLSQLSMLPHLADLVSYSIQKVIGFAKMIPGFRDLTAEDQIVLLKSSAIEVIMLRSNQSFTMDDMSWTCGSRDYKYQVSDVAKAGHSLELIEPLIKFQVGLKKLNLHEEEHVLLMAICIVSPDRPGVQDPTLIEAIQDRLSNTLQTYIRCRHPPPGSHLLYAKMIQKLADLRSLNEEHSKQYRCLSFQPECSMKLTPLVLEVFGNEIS
# [2] = tested on: human promyelocyte HL-60 cells; test: Differentiation of HL-60 promyelocytes into monocytes (NBT reduction); format: cell-based; conditions: for HL-60 differentiation, more active than corresponding 2β-isomer: 12 vs 13, 18 vs 19; for induction of differentiation of HL-60 cells to monocytes, in words: FIGS. 2, 4, 6, comparison in words; for HL-60 Differentiation Activity ratio: analog average ED50 / ED50 for 1α,25-(OH)2D3; for HL-60 Differentiation ED50: concentration inducing 50% maturation (NBT)
# Text: In the next assay, the cellular activity of the synthesized compounds was established by studying their ability to induce differentiation of human promyelocyte HL-60 cells into monocytes.
# [3] = tested on: serum calcium (bone calcium mobilization); test: Serum calcium (bone calcium mobilization), chronic doses 7 days i.p., vitamin D-deficient rats; format: in vivo, rat; conditions: for bone calcium mobilization (serum calcium) activity, in words: chronic 7 days, 130 and/or 260 pmol/day; for calcemic activity (intestinal calcium transport and bone calcium mobilization), in words: chronic doses, rats
# Experimental: (§1) Male weanling rats were obtained from Sprague Dawley Co. (Indianapolis, Ind.) and fed a 0.47% calcium, 0.3% phosphorus vitamin D-deficient diet for 1 week and then given the same diet containing 0.02% calcium, 0.3% phosphorus for 2 weeks. During the last week they were given the indicated dose of compound by intraperitoneal injection in 0.1 ml 95% propylene glycol and 5% ethanol each day for 7 days. The control animals received only the 0.1 ml of 95% propylene glycol, 5% ethanol. Twenty-four hours after the last dose, the rats were sacrificed and intestinal calcium transport was determined by everted sac technique as previously described and serum calcium determined by atomic absorption spectrometry on a model 3110 Perkin Elmer instrument (Norwalk, Conn.). There were 5 rats per group and the values represent mean±SEM.
# as §1, with “With respect to the data in Tables 3 and 4, male” for “Male”, “atormic” for “atomic”
# [4] = tested on: intestinal calcium transport; test: Intestinal calcium transport (everted sac), chronic doses 7 days i.p., vitamin D-deficient rats; format: in vivo, rat; conditions: for intestinal calcium transport activity, in words: chronic 7 days, 130 and/or 260 pmol/day
# Experimental: as §1
# as §1, with “With respect to the data in Tables 3 and 4, male” for “Male”, “atormic” for “atomic”
# [5] = tested on: intestinal calcium transport; test: Support of intestinal calcium transport in vitamin D-deficient rats on a low-calcium diet (3 weeks), 7 daily i.p. doses; format: in vivo, rat
# [6] = tested on: bone calcium mobilization (serum Ca); test: Bone calcium mobilization (serum Ca) in vitamin D-deficient rats on a low-calcium diet (3 weeks), 7 daily i.p. doses; format: in vivo, rat
# [7] = Table 4, 130 pmol/day/7 days i.p., mean±SEM
# [8] = Table 4, 260 pmol/day/7 days i.p., mean±SEM
# [9] = Table 4, 130 pmol/day/7 days i.p., mean±SEM, listed as 2β-Methyl-19-nor-1,25-(OH)2D3
# [10] = Table 4, 260 pmol/day/7 days i.p., mean±SEM, listed as 2β-Methyl-19-nor-1,25-(OH)2D3
# [11] = listed as 2β-methyl-19-nor-1,25-(OH)2D3
# [12] = Table 7 panel 1, 32 pmol daily x 7 i.p.
# [13] = Table 7 panel 1, 65 pmol daily x 7 i.p.
# [14] = Table 3, 130 pmol/day/7 days i.p., mean±SEM
# [15] = Table 3, 260 pmol/day/7 days i.p., mean±SEM
# [16] = Table 9 panel 2, 65 pmol daily x 7 i.p.
# [17] = Table 9 panel 2, 260 pmol daily x 7 i.p.
# [18] = Table 5, 130 pmol/day/7 days i.p.
# [19] = Table 5, 260 pmol/day/7 days i.p.
# [20] = Table 5, 130 pmol/day/7 days i.p., listed as 2β-Hydroxymethyl-19-nor-20(S)-1,25-(OH)2D3
# [21] = Table 5, 260 pmol/day/7 days i.p., listed as 2β-Hydroxymethyl-19-nor-20(S)-1,25-(OH)2D3
structure (smiles),measurement,setting,value
"CC(CCCC(C)(C)O)C1CCC2C(=CC=C3CC(O)C(CO)C(O)C3)CCCC21C (stereo not drawn) [Compound 21, 1α,25-Dihydroxy-2β-(hydroxymethyl)-19-norvitamin D3]","receptor binding, less effective than 2α-hydroxymethyl analog 20",[1]; relative to 20,ca. 8 times
"CC1[C@H](O)CC(=C/C=C2\CCC[C@]3(C)[C@@H]([C@H](C)CCCC(C)(C)O)CC[C@@H]23)C[C@H]1O (stereo partly drawn) [Compound 12, 2α-methyl-19-nor-1,25-(OH)2D3]","HL-60 differentiation, more active than corresponding 2β-isomer",[2],100 times
same,"induction of differentiation of HL-60 cells to monocytes, in words",[2],extremely potent
same,Serum Calcium,[3]; [7],4.8 ± 0.2 mg/100 ml
same,Serum Calcium,[3]; [8],5.8 ± 0.5 mg/100 ml
same,"bone calcium mobilization (serum calcium) activity, in words",[3],relatively strong bone calcium mobilization at both dose levels
same,Intestinal Calcium Transport (S/M),[4]; [7],4.3 ± 1.0 S/M
same,Intestinal Calcium Transport (S/M),[4]; [8],5.3 ± 1.3 S/M
same,"intestinal calcium transport activity, in words",[4],some intestinal calcium transport activity
same,"ability to bind the porcine intestinal vitamin D receptor, in words",[1],"about as active as 1α,25-(OH)2D3"
"CC1[C@H](O)CC(=C/C=C2\CCC[C@]3(C)[C@@H]([C@H](C)CCCC(C)(C)O)CC[C@@H]23)C[C@H]1O (stereo partly drawn) [Compound 13, 1α,25-Dihydroxy-2β-methyl-19-nor-vitamin D3]","induction of differentiation of HL-60 cells to monocytes, in words",[2],high potency in cellular differentiation
same,Serum Calcium,[3]; [9],4.1 ± 0.1 mg/100 ml
same,Serum Calcium,[3]; [10],3.8 ± 0.2 mg/100 ml
same,"bone calcium mobilization (serum calcium) activity, in words",[3]; [11],"little, if any"
same,"calcemic activity (intestinal calcium transport and bone calcium mobilization), in words",[3],lack of calcemic activity
same,Intestinal Calcium Transport (S/M),[4]; [9],4.4 ± 0.8 S/M
same,Intestinal Calcium Transport (S/M),[4]; [10],3.1 ± 0.9 S/M
same,"intestinal calcium transport activity, in words",[4]; [11],"little, if any"
same,"receptor binding, less effective than 1α,25-(OH)2D3","[1]; relative to 1α,25-(OH)2D3",39 fold
"CCC(O)(CC)CCCC(C)C1CCC2C(=CC=C3CC(O)C(C)C(O)C3)CCCC21C [Compound 36, 20(S)-1α,25-Dihydroxy-2α-methyl-26,27-dihomo-19-nor-vitamin D3]",HL-60 Differentiation Activity ratio,[2]; Table 6,0.01
same,HL-60 Differentiation ED50,[2]; Table 6,0.06 nM
same,Ca Transport S/M (mean ± SEM),[5]; [12],5.8 ± 0.4^d^1 S/M
same,Ca Transport S/M (mean ± SEM),[5]; [13],8.4 ± 0.8^d^2 S/M
same,Serum Ca (mean ± SEM),[6]; [12],5.9 ± 0.2^d^1
same,Serum Ca (mean ± SEM),[6]; [13],9.3 ± 0.2^d^2
same,VDR Binding ratio,[1]; Table 6,3.6
same,EC50,[1]; Table 6,3.1 nM
"CC1C(O)CC(=CC=C2CCC[C@]3(C)[C@@H]([C@@H](C)CCCC(C)(C)O)CC[C@@H]23)CC1O (stereo partly drawn) [Compound 19, 20(S)-1α,25-Dihydroxy-2β-methyl-19-nor-vitamin D3]","induction of differentiation of HL-60 cells to monocytes, in words",[2],high potency in cellular differentiation
same,Serum Calcium,[3]; [14],4.4 ± 0.1 mg/100 ml
same,Serum Calcium,[3]; [15],4.4 ± 0.1 mg/100 ml
same,"bone calcium mobilization (serum calcium) activity, in words",[3],"little, if any, bone mobilization activity"
same,"calcemic activity (intestinal calcium transport and bone calcium mobilization), in words",[3],lack of calcemic activity
same,Intestinal Calcium Transport (S/M),[4]; [14],2.9 ± 0.3 S/M
same,Intestinal Calcium Transport (S/M),[4]; [15],3.8 ± 0.1 S/M
same,"intestinal calcium transport activity, in words",[4],"little, if any, intestinal calcium transport activity"
same,"ability to bind the porcine intestinal vitamin D receptor, in words",[1],"about as active as 1α,25-(OH)2D3"
"CC1[C@H](O)CC(=C/C=C2\CCC[C@@]3(C)C2CCC3[C@@H](C)CCCC2(O)CCCC2)C[C@H]1O (stereo partly drawn) [Compound 49, 20(S)-1α,25-Dihydroxy-26,27-dimethylene-2β-methyl-19-norvitamin D3]",HL-60 Differentiation Activity ratio,[2]; Table 8,0.08
same,HL-60 Differentiation ED50,[2]; Table 8,0.32 nM
same,Ca Transport S/M (mean ± SEM),[5]; [16],4.9 ± 0.6^d^1 S/M
same,Ca Transport S/M (mean ± SEM),[5]; [17],5.4 ± 0.7^d^2 S/M
same,Serum Ca (mean ± SEM),[6]; [16],5.8 ± 0.2^d^1
same,Serum Ca (mean ± SEM),[6]; [17],9.5 ± 0.1^d^2
same,VDR Binding ratio,[1]; Table 8,2.6
same,EC50,[1]; Table 8,2.3 nM
"C[C@H](CCCC(C)(C)O)[C@H]1CC[C@H]2/C(=C/C=C3C[C@@H](O)C(CO)[C@H](O)C3)CCC[C@]12C (stereo partly drawn) [Compound 20, 1α,25-Dihydroxy-2α-(hydroxymethyl)-19-norvitamin D3]","ability to bind the porcine intestinal vitamin D receptor, in words",[1],about the same binding affinity as 23
"CC(CCCC(C)(C)O)C1CCC2C(=CC=C3CC(O)C(C)C(O)C3)CCCC21C (stereo not drawn) [Compound 18, 2α-methyl-19-nor-20S-1,25-(OH)2D3]","HL-60 differentiation, more active than corresponding 2β-isomer",[2],10 times
same,"induction of differentiation of HL-60 cells to monocytes, in words",[2],extremely potent
same,Serum Calcium,"[3]; Table 3, 130 pmol/day/7 days i.p., mean±SEM, listed as 2α-Methyl-19-nor-20(S)-1,25-(OH)2D3",8.3 ± 0.7 mg/100 ml
same,Serum Calcium,"[3]; Table 3, 130 pmol/day/7 days i.p., mean±SEM, listed as 2α-methyl-19-nor-20S-1,25-(OH)2D3",8.3±0.7 mg/100 ml
same,Serum Calcium,"[3]; Table 3, 260 pmol/day/7 days i.p., mean±SEM, listed as 2α-Methyl-19-nor-20(S)-1,25-(OH)2D3",10.3 ± 0.11 mg/100 ml
same,Serum Calcium,"[3]; Table 3, 260 pmol/day/7 days i.p., mean±SEM, listed as 2α-methyl-19-nor-20S-1,25-(OH)2D3",10.3±0.11 mg/100 ml
same,"bone calcium mobilization (serum calcium) activity, in words",[3],much higher than that of the native hormone
same,Intestinal Calcium Transport (S/M),[4]; [14],12.9 ± 1.9 S/M
same,Intestinal Calcium Transport (S/M),[4]; [15],8.4 ± 1.1 S/M
same,"intestinal calcium transport activity, in words",[4],significant change in intestinal calcium transport at both the 260 pmol and the 130 pmol dose levels
same,"ability to bind the porcine intestinal vitamin D receptor, in words",[1],"about as active as 1α,25-(OH)2D3"
"CC(CCCC(C)(C)O)C1CCC2C(=CC=C3CC(O)C(CO)C(O)C3)CCCC21C [Compound 22, 2α-Hydroxymethyl-19-nor-20(S)-1,25-(OH)2D3]","induction of differentiation of HL-60 cells to monocytes, in words",[2],high potency in cellular differentiation
same,Serum Calcium,[3]; [18],4.0 ± 0.1 mg/100 ml
same,Serum Calcium,[3]; [19],3.9 ± 0.1 mg/100 ml
same,"calcemic activity (intestinal calcium transport and bone calcium mobilization), in words",[3],relatively inactive; also recorded: lack of calcemic activity
same,Intestinal Calcium Transport (S/M),[4]; [18],5.0 ± 0.3 S/M
same,Intestinal Calcium Transport (S/M),[4]; [19],5.8 ± 0.4 S/M
same,"ability to bind the porcine intestinal vitamin D receptor, in words",[1],"almost equivalent to 1α,25-(OH)2D3"
"CC(CCCC(C)(C)O)C1CCC2C(=CC=C3CC(O)C(CO)C(O)C3)CCCC21C [Compound 23, 20(S)-1α,25-Dihydroxy-2β-(hydroxymethyl)-19-norvitamin D3]","induction of differentiation of HL-60 cells to monocytes, in words",[2],high potency in cellular differentiation
same,Serum Calcium,[3]; [20],3.6 ± 0.1 mg/100 ml
same,Serum Calcium,[3]; [21],3.5 ± 0.2 mg/100 ml
same,"calcemic activity (intestinal calcium transport and bone calcium mobilization), in words",[3],relatively inactive; also recorded: lack of calcemic activity
same,Intestinal Calcium Transport (S/M),[4]; [20],3.5 ± 0.7 S/M
same,Intestinal Calcium Transport (S/M),[4]; [21],3.5 ± 0.3 S/M
same,"receptor binding, less potent than 22 and 1α,25-(OH)2D3","[1]; relative to 22 and 1α,25-(OH)2D3",6–8 ×
